According to publication PMC11504387, “Synthesis and Biological Activity Assessment of 2-Styrylbenzothiazoles as Potential Multifunctional Therapeutic Agents” (Antioxidants, 2024):

Legend:
[1] = Ferric reducing antioxidant power (FRAP) test; format: biochemical; conditions: Trolox equivalents; mean ± SD
Protocol: The FRAP test, based on a colorimetric reaction, can assess the ability of a sample to reduce ferric ions to ferrous ions when complexed with 2,4,6-trispiridyl-s-triazine (TPTZ). The FRAP solution consisted of 0.1 M acetate buffer (pH 3.6), 10 mmol/L of TPTZ in 40 mM HCl and a 20 mM solution of FeCl3, in a 10:1:1 ratio. A 1.9 mL volume of the FRAP solution was incubated with 0.1 mL of the sample solution at 37 °C for 10 min. The absorbance was then read with a UV-Vis spectrophotometer at a wavelength of 593 nm, which corresponds to the maximum absorbance peak of the Fe^2+-TPTZ complex. Trolox® was used as a standard, and ferulic acid was used as positive control, and the results are expressed as µmol TE/g.

[2] = Photostability of O/W emulsions under solar simulator; format: physicochemical; conditions: for Photostability (classification, threshold 80%): O/W emulsion, solar irradiation; for %UVAPfeff.: residual UVAPF after solar irradiation; for %UVAPfeff. / %SPFeff.: O/W emulsion on PMMA; for %SPFeff.: residual in vitro SPF after solar irradiation
Protocol: Oil-in-water (O/W) emulsions containing individual filters were spread on PMMA sheet and irradiated with a solar simulator by applying different doses of UVA equivalent to an erythema effective radiant exposure of 100 J/m^2. Photostability was assessed by analysing the spectral transmittance, before and after irradiation, of the sunscreen thin film, measured before and after exposure from 290 to 400 nm. The residual percentages of SPF in vitro (%SPFeff.) and UVAPF (%UVAPFeff.) were calculated according to Equations (6) and (7), respectively. When the %SPFeff. and %UVAPFeff. are greater than or equal to 80, according to current regulations, a filter can be considered photostable [37].
To evaluate the effectiveness and safety profile of a sunscreen formulation, it is necessary to provide data on its photostability. Photodegradation data can be obtained by recording the pre- and post-irradiation transmittance spectra of PMMA plates with finger-coat formulations exposed to a dose of UVA capable of causing erythema. This method, established by Garoli et al., is used to determine photostability. The sun protection layer’s transmission in the range of 290–400 nm is recorded before and after exposure to sunlight, following the protocol.
The residual percentages of SPF in vitro (%SPFeff.) and UVAPf (%UVAPfeff.) were calculated using Equations (6) and (7) and are listed in Table 4. A filter can be classified as photostable if the %SPFeff. is greater than or equal to 80, according to regulatory standards. %SPFeff. = in vitro SPFafter/in vitro SPFbefore × 100(6) %UVAPfeff. = UVAPfafter/UVAPfbefore × 100(7) where SPFafter and SPFbefore are the SPF values calculated from the software after and before solar irradiation, and UVAPfafter and UVAPfbefore are the UVAPf values calculated from the software after and before solar irradiation.

[3] = tested on: human melanoma Colo38 cells; assay: Cell growth inhibition assay, Colo38; format: cell-based; conditions: for IC50: Homo sapiens, 24 h incubation, mean ± SD; for SI (selectivity index): IC50 HaCat / IC50 Colo38
Protocol: (§1) Cell growth inhibition analyses were performed on human melanoma Colo38 cells and skin HaCat keratinocytes. Human melanoma Colo38 cells were kindly given by Dr. Patrizio Giacomini (Laboratory of Immunology, Regina Elena Institute, Rome, Italy). HaCat cells were obtained from Istituto Zooprofilattico Sperimentale della Lombardia e dell’Emilia-Romagna, Brescia, Italy. Cells were seeded at 40,000 cells/mL and 25,000 cells/mL, respectively. Colo38 cells were maintained in RPMI 1640, supplemented with 10% foetal bovine serum (FBS), penicillin (100 Units/mL), and streptomycin (100 µg/mL). HaCat cells were maintained in DMEM, supplemented with 10% fatal bovine serum (FBS), penicillin (100 Units/mL), streptomycin (100 µg/mL) and glutamine (2 mM); the incubation was performed at 37 °C in a 5% CO2 atmosphere. Compounds were dissolved in DMSO to obtain 50 mM stock solutions and diluted before cell treatment in MeOH. The tested compounds were added at serial dilutions to the cell cultures (from 0.1 to 100 µM) and incubated for 24 h further. Cells were then harvested, suspended in physiological solution, and counted with a Z2 Coulter Counter (Coulter Electronics, Hialeah, FL, USA). The number of cells/mL and the IC50 values were determined when untreated cells were in the log phase of cell growth. Samples of vehicles and untreated cells were included in each plate. Cisplatin was used as positive control for the HaCat cells, while N1-(4-arylidene)-1H-(2-OH-4-N(Et)2-phenyl)-[d]imidazole-2-carbohydrazide was used as positive control for the Colo38 cell line.

[4] = tested on: skin HaCat keratinocytes; assay: Cell growth inhibition assay, HaCat; format: cell-based, human; conditions: Homo sapiens, HaCaT; 24 h incubation; mean ± SD
Protocol: as §1

| Compound | FRAP [1] [µmolTE/g] | Photostability (classification, threshold 80%) [2] | %UVAPfeff. [2] [%] | %SPFeff. [2] [%] | IC50 [3] [µM] | SI (selectivity index) [3] | IC50 [4] [µM] |
| --- | --- | --- | --- | --- | --- | --- | --- |
| C(=C\c1nc2ccccc2s1)/c1ccccc1 [BZTst1, (E)-2-styrylbenzo[d]thiazole] | 331.15 ± 6.29 | cannot be considered photostable | 54.38 | 99.14 | 85.6 ± 2.76 | >1.17 | > 100 |
| Oc1ccc(/C=C/c2nc3ccccc3s2)cc1 [BZTst2, (E)-4-(2-(benzo[d]thiazol-2-yl)vinyl)phenol] | 1122.44 ± 25.14 | – | 95.96 | 104.43 | 79.8 ± 4.7 | 1.07 | 85.8 ± 17.9 |
| COc1ccc(/C=C/c2nc3ccccc3s2)cc1 [BZTst3, (E)-2-(4-methoxystyryl)benzo[d]thiazole] | 178.71 ± 8.17 | – | 152.12 | 103.21 | > 100 | – | > 100 |
| Oc1ccc(/C=C/c2nc3ccccc3s2)cc1O [BZTst4, (E)-4-(2-(benzo[d]thiazol-2-yl)vinyl)benzene-1,2-diol] | 5673.33 ± 86.42 | – | 101.57 | 104.02 | 58.1 ± 12.1 | 1.38 | 80.2 ± 24.7 |
| COc1ccc(/C=C/c2nc3ccccc3s2)cc1O [BZTst5, (E)-5-(2-(benzo[d]thiazol-2-yl)vinyl)-2-methoxyphenol] | 788.09 ± 14.46 | – | 106.30 | 100.00 | > 100 | <1 | 86 ± 40.7 |
| COc1cc(/C=C/c2nc3ccccc3s2)ccc1O [BZTst6, (E)-4-(2-(benzo[d]thiazol-2-yl)vinyl)-2-methoxyphenol] | 3262.22 ± 7.86 | photostable | 80.75 | 93.59 | 71.5 ± 14.2 | >1.40 | > 100 |
